{
  "source": "patent EP2818477B1",
  "about": "“L-LYSYL-L-GLUTAMYL-L-TRYPTOPHAN FOR CORRECTING METABOLIC SYNDROME” (Obshestvo S Organichennoj Otvetstvennostju \"CytoNIR\", priority 2012, dated 2016)",
  "key": {"[1]": {"assay": "Hyperlipidaemia induced by polyoxyethylene sorbitan monooleate (polysorbate-80) in rats, serum lipids", "format": "in vivo, Ratten", "conditions": "blood serum 24 h after polysorbate-80 300 mg/kg i.p.", "experimental": "Die Versuche wurden an 51 Outbred-Ratten-Männchen der Linie Sprague-Dawley mit Körpergewicht von 220 - 240 g durchgeführt.\nDie untersuchten Peptide wurden täglich in einer Tagesdosis von 20 und 200 µg/kg in den Magen im Laufe von 5 Tagen bis Hyperlipidämie-Ansatz verabreicht. Als Vergleichspräparat wurde ein Präparat gegen Hyperlipidämie aus der Gruppe von Fibric-Säure-Derivaten oder Fibraten - Bezafibrat (2-(b-parachlorobenzoyl-aminoethyl)phenoxy-2-methylpropinsäure) in der Dosis 50,0 mg/kg verwendet.\nDie Hyperlipidämie wurde bei Ratten mittels intraperitonealer Einführung von Polyoxyethylen-sorbitan-monooleat (Polysorbat-80, Mischung von Polyäthylen-glykol-Esteren von Anhydrosorbit Monooleat) in einer Dosis von 300 mg/kg verabreicht. 24 Stunden später wurden die Ratten eingeschläfert. Danach wurden Triglyzeridspiegel, Gesamtcholesterin und Lipoproteid-Cholesterin mit hoher Dichte (HDL) im Blutserum der Tiere gemessen.\nInfolge der Untersuchung der spezifischen pharmakologischen Aktivität wurde Folgendes festgestellt. Im Hintergrund der durch Polyoxyethylen-sorbitan-monooleat verursachten Hyperlipidämie üben Peptide eine hypolipidämische Wirkung aus. Das zeigt sich durch Senkung des Triglyzeridspiegels, des Gesamtcholesterinspiegels sowie durch Steigerung des HDL-Cholesterins im Blut (Tabelle 1) an. Tabelle 1"}, "[2]": {"format": "in vivo", "conditions": "500 µg oral twice daily for 30 days", "from_the_text": "Die Untersuchung bezog sich auf Patienten mit einer verifizierten Diagnose eines metabolischen Syndroms. Die Diagnose wurde bei Erfüllung folgender Kriterien gestellt: arterielle Hypertension, gestörte Glukosetoleranz, Fettsucht, Dyslipidämie. Es wurden insgesamt 85 Patienten mit metabolischem Syndrom (50 Frauen, 35 Männer) untersucht. Das durchschnittliche Alter betrug bei den Männern 54,6 ± 12 Jahre, bei den Frauen 55,6 ± 13,0 Jahre.\nKriterien für die Einbeziehung der Patienten in die Forschung: • 1. Alter: Älter als 45 Jahre für Männer und Frauen. • 2. Vorhandensein von klinischen Merkmalen eines metabolischen Syndroms. • 3. Vorhandensein von verifizierter Pathologie des Magen-Darm-Kanals (Verstopfungen, Reizdarmsyndrom, Cholezystitis, Pankreatitis, Fettleber). • 4. Zustimmung des Patienten.\nDie Kriterien für den Ausschluss der Kranken aus der Untersuchung waren das Vorhandensein von familiärer Dyslipidämie, akuter Pathologie des Magen-Darm-Kanals, Merkmalen der Helmintheninvasion und onkologischer und systematischer Pathologie.\nDie Kombination der angewandten pathogenetischen Therapie unter Einsatz solcher Mittel wie ACE-Hemmer, Ca2^+-Kanal-Blocker, harntreibende Mittel, β-Blocker und deren Dosierung wurde aufgrund klinischer Indikationen festgelegt. Bei der Untersuchung wurden auch die mit Nitropräparaten sowie mit Statinen behandelten Kranken ausgeschlossen. Alle Kranken wurden einer hypocholesterinämisierenden Diät unterzogen, die eine Einnahme von Kleie einschließt.\nTripeptid Lys-Glu-Trp-NH2 wurde 47 Patienten oral in einer Dosis von 500 µg pro Gabe zweimal täglich im Laufe von 30 Tagen verabreicht. Die Unterbrechung zwischen den Behandlungen betrug 2 Monate.\nDie Kranken wurden im Laufe von 12 Monaten beobachtet. Die Untersuchung umfasste 3 Phasen: Ursprungsphase (zum Zeitpunkt der Diagnoseüberprüfung), 6 Monate und ein Jahr später.\nFolgende Parameter wurden bei allen Kranken analysiert: Geschlecht, Alter zum Zeitpunkt der Untersuchung, Krankheitsdauer, Dauer der arteriellen Hypertension, Fettsucht, Dyslipidämie. Die Untersuchung der Kranken umfasste eine Einschätzung der Risikofaktoren, wie z. B. Vererbung, Fettsucht, Zuckerkrankheit, koronare Herzkrankheit. Dabei wurde eine Sozialanamnese, d. h. Besonderheiten des Lebensstils, Ernährungsgewohnheiten, analysiert. Es wurden auch anthropometrische Messungen durchgeführt: Wuchs, Körpergewicht, Body-Maß- Index. Alle Kranken wurden einer planmäßigen Laboruntersuchung unterzogen und zwar: klinische Blutanalyse und Untersuchung von biochemischen Blutkennwerten. Es wurden Hämoglobingehalt, Erythrozytenmenge, Leukozyten-gehalt, Lymphozytengehalt ermittelt. Unter den biochemischen Serumkennwerten wurden Gesamteiweißgehalt, Albumine, Triglyzeridspiegel, Cholesterinspiegel, LDL, HDL, LDL/HDL-Verhältnis ermittelt. Die durchgeführten Instrumentenunter-suchungen umfassten Zuckerbelastungstest, Abdomen-Sonographie, Stuhluntersuchungen, Schilddrüsenfunktionsprüfung (Hormonstatus)."}, "[3]": {"assay": "Alloxan diabetes in rats, blood glucose and response to insulin", "format": "in vivo, Ratten", "experimental": "Bekanntlich ist Alloxan-Diabetes durch Schädigung der ß-Zellen von Pankreas gekennzeichnet und wird von ausgeprägter Hyperglykämie infolge eines Insulinmangels und einer Aktivierung von Glukoneogenese begleitet.\nDer Versuch wurde an 18 weißen Outbred-Ratten-Männchen mit einem durchschnittlichen Körpergewicht von 349 ± 19 g durchgeführt. Nach der Ermittlung von Glukosekonzentration im Blut wurden alle Tiere in 2 Gruppen aufgeteilt. Danach erhielten alle Tiere einmalig intravenös je 1 ml Alloxanlösung (\"Spofa\") in einer Dosis von 35 mg/kg. 15 Tage danach wurde den Tieren aus der Referenzgruppe je 0,3 ml der 0,9 %igen NaCl-Lösung einmal täglich intraperitoneal verabreicht. Die Ratten aus der Hauptgruppe wurden mit Tripeptid Lys-Glu-Trp-NH2 in einer Dosis von 3 µg (in 0,3 ml der 0,9 %igen NaCl-Lösung) pro Ratte innerhalb von 11 Tagen behandelt. Eine separate Gruppe bestand aus 7 gesunden Ratten mit einem ähnlichen Körpergewicht.\nDanach wurde allen Tieren Insulin (0,3 ME) intravenös verabreicht und die Glukosekonzentration im Blut gemessen."}, "[4]": {"assay": "Alimentary atherogenic dyslipoproteinaemia (hypercholesterolaemic diet, 24 days) in rats, serum lipids", "format": "in vivo, Ratten", "conditions": "100 µg/kg i.p. daily", "from_the_text": "Der Versuch wurde an 40 weißen Ratten-Männchen der Wistar-Linie mit einem Körpergewicht von 230 - 250 g durchgeführt. Die Tiere wurden in 4 Gruppen aufgeteilt. Gruppe 1: Referenzgruppe (Intakt), Gruppen 2 bis 4: Versuchsgruppen.\nDie Versuchstiere wurden auf hypercholesterinämische (HCÄ) Diät gesetzt, um eine alimentäre atherogene Dyslipoproteinämie (DLP) zu modellieren. Die HCÄ- Diät umfasste mind. 7,5 % Cholesterin (CS), 45 % Fette und einen Überschuss an Vitamin D2 (500 000 IE). Gleichzeitig mit der Entwicklung von DLP erhielt die 3. Gruppe von Tieren Lys-Glu-Trp in einer Dosis von 100 µg/kg intraperitoneal täglich. Die 4. Gruppe von Tieren erhielt Lipanthyl 25 mg/kg intraperitoneal Lipanthyl 200M der Fa. Lab.Fournier S.A. (Frankreich) oder Fenofibrate, die zur Behandlung von Hyperlipoproteinämie verwendet werden, die sich mit keiner Diät mehr behandeln lässt. Der Versuch dauerte 24 Tage. […] Sie waren wohlgenährt und hatten glattes glänzendes Fell. Die Tiere aus der 2. Gruppe hatten zerzaustes Fell und zeigten Übererregbarkeit, was durch einen Überschuss an Vitamin D2 erklärt werden kann.\nNach dem Versuchsende wurde eine Dekapitation der Tiere vorgenommen. Danach wurden der Gesamt-Cholesterinspiegel (CS), Triglyzeridspiegel (TG), Cholesteringehalt der Lipoproteine hoher Dichte (CS HDL) im Blutserum der Tiere beurteilt und die Cholesterin-Konzentration der Lipoproteine niedriger Dichte (CS LDL) sowie der Cholesterin-HDL Quotient (LDL/HDL-Verhältnis) berechnet. Die genannten Kennziffern sind der Tabelle 2 zu entnehmen. Tabelle 2\nBei der Beurteilung wurden der Zustand und das Gewicht von Leber, Milz und Nebennieren berücksichtigt."}, "[5]": {"conditions": "20 µg/kg daily into the stomach for 5 days"}, "[6]": {"conditions": "200 µg/kg daily into the stomach for 5 days"}, "[7]": {"conditions": "3 µg per rat i.p. for 11 days, 30 min after insulin 0,3 ME i.v."}},
  "note": "Read-outs that look alike come from different tables or passages of the source. Marks after values point to notes of the source that are not given here. Where a SMILES comes first, the peptide text is derived from it.",
  "data": [
    {"smiles": "NCCCC[C@H](N)C(=O)N[C@@H](CCC(=O)O)C(=O)N[C@@H](Cc1c[nH]c2ccccc12)C(N)=O", "note": "[Lys-Glu-Trp-NH2] (H-Lys-Glu-Trp-NH2)", "values": [
      {"measurement": "Gesamtcholesterin", "setting": "[1]; [5]", "result": "1,69±0,15 mMol/l"},
      {"measurement": "HDL- Cholesterin", "setting": "[1]; [5]", "result": "1,05±0,02 mMol/l"},
      {"measurement": "Triglyzeridspiegel", "setting": "[1]; [5]", "result": "0,76±0,14 mMol/l"},
      {"measurement": "Gesamtcholesterin", "setting": "[1]; [6]", "result": "1,22±0,15 mMol/l"},
      {"measurement": "HDL- Cholesterin", "setting": "[1]; [6]", "result": "1,09±0,02 mMol/l"},
      {"measurement": "Triglyzeridspiegel", "setting": "[1]; [6]", "result": "0,88±0,12 mMol/l"},
      {"measurement": "Cholesterin-Konzentration", "setting": "[2]; 2 months between courses, 12 months observation, with basic therapy, Fig. 1", "result": "zur Cholesterin-Konzentrationssenkung beitrug"},
      {"measurement": "Konzentration der Lipoproteine mit hoher Dichte", "setting": "[2]; in complex therapy", "result": "Konzentrationssteigerung der Lipoproteine mit hoher Dichte"},
      {"measurement": "drucksenkender Effekt", "setting": "[2]; in complex therapy", "result": "schnelleren und stabileren drucksenkenden Effekt"},
      {"measurement": "LDL/HDL-Verhältnis", "setting": "[2]; with basic therapy, Fig. 3", "result": "ausgeprägte Verminderung des LDL/HDL-Verhältnisses"},
      {"measurement": "Konzentration der Triglyzeride", "setting": "[2]; 3rd examination after one year, Fig. 2", "result": "maximale Konzentrationssenkung der Triglyzeride"},
      {"measurement": "Nebenwirkungen, Komplikationen, Arzneiabhängigkeit", "setting": "[3]; 3 µg per rat i.p. for 11 days", "result": "keine Nebenwirkungen, Komplikationen und keine Arzneiabhängigkeit"},
      {"measurement": "Glukosekonzentration im Blut (mg %) Ausgangsspiegel", "setting": "[3]; 3 µg per rat i.p. for 11 days, starting 15 days after alloxan 35 mg/kg i.v., before insulin", "result": "221,5±11,2 mg %"},
      {"measurement": "Glukosekonzentration im Blut (mg %) 30 Minuten nach Insulineinführung", "setting": "[3]; [7]", "result": "123,6±8,3 mg %"},
      {"measurement": "Senkung von Glukosespiegel im Vergleich zum Ausgangsspiegel (%)", "setting": "[3]; [7]", "result": "44,2%"},
      {"measurement": "Senkung des Glukosespiegels im Blut", "setting": "[3]; day 28 of the study, on average, 3 µg per rat i.p. for 11 days", "result": "34,8%"},
      {"measurement": "Letalität", "setting": "[3]; main group, 3 µg per rat i.p. for 11 days", "result": "Senkung der Letalität"},
      {"measurement": "Glukosespiegelsenkung nach der Insulineinführung gegenüber der Vergleichsgruppe", "setting": "[3]; versus alloxan diabetes + NaCl group", "result": "fast zweimal größere Glukosespiegelsenkung"}
    ]},
    {"smiles": "CC(C)(Oc1ccc(CCNC(=O)c2ccc(Cl)cc2)cc1)C(=O)O", "note": "[Bezafibrat, 2-(b-parachlorobenzoyl-aminoethyl)phenoxy-2-methylpropinsäure]", "values": [
      {"measurement": "Gesamtcholesterin", "setting": "[1]; 50,0 mg/kg (comparator)", "result": "1,34±0,03 mMol/l"},
      {"measurement": "HDL- Cholesterin", "setting": "[1]; 50,0 mg/kg (comparator)", "result": "0,98±0,05 mMol/l"},
      {"measurement": "Triglyzeridspiegel", "setting": "[1]; 50,0 mg/kg (comparator)", "result": "0,55±0,06 mMol/l"}
    ]},
    {"smiles": "NCCCC[C@H](N)C(=O)N[C@@H](CCC(=O)O)C(=O)N[C@@H](Cc1c[nH]c2ccccc12)C(=O)O", "note": "[Lys-Glu-Trp, L-Lysyl -L-Glutamyl-L-Tryptophan] (H-Lys-Glu-Trp-OH)", "values": [
      {"measurement": "HDL- Cholesterin", "setting": "[1]; [5]", "result": "0,97±0,04 mMol/l"},
      {"measurement": "Triglyzeridspiegel", "setting": "[1]; [5]", "result": "0,58±0,05 mMol/l"},
      {"measurement": "Gesamtcholesterin", "setting": "[1]; [6]", "result": "2,10±0,17 mMol/l"},
      {"measurement": "HDL- Cholesterin", "setting": "[1]; [6]", "result": "0,60±0,02 mMol/l"},
      {"measurement": "Triglyzeridspiegel", "setting": "[1]; [6]", "result": "0,67±0,05 mMol/l"},
      {"measurement": "Wirkung auf das relative Gewicht von Leber, Milz und Nebennieren", "setting": "[4]; HCÄ diet 24 days", "result": "keine ungünstige Wirkung"},
      {"measurement": "Triglyzeridspiegel", "setting": "[4]; HCÄ diet 24 days, blood serum", "result": "0,96±0,16 mMol/l"},
      {"measurement": "Aussehen der Tiere", "setting": "[4]; during the 24-day experiment", "result": "normgerechtes Aussehen"},
      {"measurement": "CS LDL", "setting": "[4]; calculated, HCÄ diet 24 days", "result": "0,71±0,24 mMol/l"},
      {"measurement": "LDL/HDL-Verhältnis", "setting": "[4]; calculated, HCÄ diet 24 days", "result": "2,21±0,58* *"},
      {"measurement": "CS", "setting": "[4]; total cholesterol, HCÄ diet 24 days, blood serum", "result": "1,70±0,27* * mMol/l"}
    ]}
  ]
}
